Measurements from patent US7205382B2, “Peptides, the production and use thereof for binding immunoglobulins” (Fresenius Medical Care Affina GmbH, priority 2000, dated 2007).
Bridge positions count the residues as written; N and C are the ends. Ends that are not written are not given here. cellulose = not defined here; βAla = NCCC(=O)O

Key:
Assay type in all cases: binding
Set-up in all cases: key: No binding of immunoglobulin for the defined peptide variant, detection negative: 0; Binding of immunoglobulin for the defined peptide variant, detection positive: +
human IgG-Fc = assay: Cellulose-immobilized 13-mer peptide variants incubated with human IgG-Fc, anti-human IgG-AP detection; settings: IgG-Fc 1 μg/ml in blocking buffer, 3 h room temperature
Procedure, shortened: (§1)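 Spot membrane, (βA)(βA) spacer; T-TBS pH 8.0 wash, block 5% saccharose/4% BSA. 3 h RT with IgG-Fc 1 μg/ml, serum 1:10,000, or block buffer only (specificity control). 3× wash, AP-anti-human IgG 1.2 μg/ml, NBT/BCIP in pH 9.5 buffer.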

[1] = test system: immunoglobulins in human plasma; assay: Cellulose-immobilized 13-mer peptide variants incubated with human plasma, anti-human IgG-AP detection; settings: human plasma as sample, diluted 1:10,000 in blocking buffer, 3 h room temperature
Procedure, shortened: as §1

serum albumin = assay: Cellulose-immobilized 13-mer peptide variants incubated with serum albumin (negative control), anti-human IgG-AP detection; settings: blocking buffer without addition, 3 h room temperature
Procedure, shortened: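 Peptides on cellulose via a (βA)(βA) spacer were blocked in T-TBS (pH 8.0) with 5% saccharose and 4% BSA, then exposed for 3 h at room temperature to IgG-Fc (1 μg/ml), serum diluted 1:10,000, or blocking buffer alone. Bound IgG was detected with AP-anti-human IgG (1.2 μg/ml) and NBT/BCIP colour development.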

Row | Substance | Result for incubation with human IgG-Fc (immunoglobulin binding detection) (human IgG-Fc) | Result for incubation with human plasma (immunoglobulin binding detection) [1] | Result for incubation with serum albumin (immunoglobulin binding detection) (serum albumin)
1 | 01L: cellulose-bound 13-mer variant LCAWHLGELVWCT-(βA)(βA) (LCAWHLGELVWCT-{βAla-βAla-cellulose}; disulfide 2-12 (inferred); reading uncertain; also: printed as LCAWHLGELVWCT-(βA)(βA)) | + | 0 | 0
2 | 06T: cellulose-bound 13-mer variant DCAWHTGELVWCT-(βA)(βA) (DCAWHTGELVWCT-{βAla-βAla-cellulose}; disulfide 2-12 (inferred); not fully specified (N-terminus); printed as DCAWHTGELVWCT-(βA)(βA); reading uncertain) | + | 0 | 0
3 | 08T: cellulose-bound 13-mer variant DCAWHLGTLVWCT-(βA)(βA) (DCAWHLGTLVWCT-{βAla-βAla-cellulose}; disulfide 2-12 (inferred); reading uncertain; also: printed as DCAWHLGTLVWCT-(βA)(βA)) | 0 | 0 | 0

The remaining lines, values ahead:

Row | Result for incubation with human IgG-Fc (immunoglobulin binding detection) (human IgG-Fc) | Result for incubation with human plasma (immunoglobulin binding detection) [1] | Result for incubation with serum albumin (immunoglobulin binding detection) (serum albumin) | Substance
4 | 0 | 0 | 0 | 05D: cellulose-bound 13-mer variant DCAWDLGELVWCT-(βA)(βA) (disulfide 2-12 (inferred); not fully specified (N-terminus, C-terminus); printed as DCAWDLGELVWCT-(βA)(βA); also: cellulose-bound)
5 | 0 | 0 | 0 | 08C: cellulose-bound 13-mer variant DCAWHLGCLVWCT-(βA)(βA) (DCAWHLGCLVWCT-{βAla-βAla-cellulose}; not fully specified (N-terminus); printed as DCAWHLGCLVWCT-(βA)(βA); cysteine pairing not given here; reading uncertain)
6 | 0 | 0 | 0 | 09C: cellulose-bound 13-mer variant DCAWHLGECVWCT-(βA)(βA) (DCAWHLGECVWCT-{βAla-βAla-cellulose}; not fully specified; printed as DCAWHLGECVWCT-(βA)(βA); cysteine pairing not given here; reading uncertain)
7 | 0 | 0 | 0 | 07E: cellulose-bound 13-mer variant DCAWHLEELVWCT-(βA)(βA) (DCAWHLEELVWCT-{βAla-βAla-cellulose}; disulfide 2-12 (inferred); not fully specified (N-terminus); printed as DCAWHLEELVWCT-(βA)(βA); reading uncertain)
8 | 0 | 0 | 0 | 07P: cellulose-bound 13-mer variant DCAWHLPELVWCT-(βA)(βA) (DCAWHLPELVWCT-{βAla-βAla-cellulose}; disulfide 2-12 (inferred); not fully specified (N-terminus); printed as DCAWHLPELVWCT-(βA)(βA); reading uncertain)
